From patent US20110224226A1, “COMPOSITIONS AND METHODS FOR INCREASING BLOOD PLATELET LEVELS IN HUMANS” (AKARX, Inc., priority 2006, published 2011)
Where two headings read alike, the source gives them in different places.

Tests used:
[1] = Example 1 single dose study: safety; type: in vivo, human; conditions: single dose up to 100 mg, healthy volunteers
Description: A single-center, randomized, double-blind, dose-rising study to determine the safety, pharmacokinetics, and pharmacodynamics of single doses of 1-(3-chloro-5-{[4-(4-chlorothiophen-2-yl)-5-(4-cyclohexylpiperazin-1-yl)thiazol-2-yl]carbamoyl} pyridin-2-yl)piperadine-4-carboxylic acid (Formula I) in normal healthy volunteers was performed. The starting dose of the drug of Formula I was 1 mg (expressed as free base). Successive dose cohorts received 3, 10, 20, 50, 75 and 100 mg. The drug substance in the form of the monomaleate salt was suspended in Ora-Plus® (purified water, microcrystalline cellulose, sodium carboxymethylcellulose, xanthan gum, citric acid, sodium phosphate, simethicone, potassium sorbate and methylparaben), a commercially available oral suspending vehicle manufactured by Paddock Laboratories, Inc. Minneapolis, Minn. The Ora-Plus® was diluted with purified water, USP in a 1:1 suspension before being used to suspend the drug substance powder in preparation for oral administration. Prior to administration, 30 mL of the Ora-Plus®/water vehicle was added to each bottle, shaken and then consumed by the subject for each of the 3, 10, 50 and 75 mg dose cohorts. This was followed by an additional 30 mL of vehicle that was added to the bottle as a wash solution, shaken and then consumed by the subject. […]

[2] = in-vitro plasma protein binding, monkeys; type: in vitro ADME; conditions: monkey, 0.05 to 50 μg/mL
Description: (§1) The in-vitro plasma protein binding of the drug of Formula I was independent of concentration over the concentration range of 0.05 to 50 μg/mL and was 87.2-89.1% in mice; 87.6-89.2% in rats; 88.3-92.0% in rabbits; […] in dogs; 97.0-97.6% in monkeys; and 96.3-96.6% in humans.

liver microsomal enzymes = test: metabolism by dog liver microsomal enzymes; type: in vitro ADME
[3] = Example 2 multi-dose study: pharmacokinetics; type: in vivo, human; conditions: for Tmax at 14 days: read-out: mean time to maximum plasma concentration (Tmax); for Cmax at 14 days: read-out: mean maximum plasma concentration (Cmax)
Description: A double-blind, placebo-controlled, dose rising study was performed in healthy male and female volunteers. Each dose cohort received either placebo or active treatment as an oral suspension once daily for fourteen (14) consecutive days. The dose of study drug was prepared and administered as described in Example 1 above. The doses administered in this multiple dose study were based on the safety and tolerability assessment of the doses administered in Example 1.
Based on the results of Example 1, the starting dose was 3 mg. Based on the safety and tolerability results from Example 1, the dose was scheduled to be escalated to 10, 20, 50 and 100 mg per day for 14 consecutive days. Successive dose cohorts were not treated until the previous cohort completed 14 days of treatment and the safety follow-up visit on Day 21.

3A4 = 3A4 (Homo sapiens, UniProt P08684); test: inhibition of human liver cytochrome P450 3A4; type: in vitro ADME; conditions: human liver cytochrome P450 isoenzyme
2C19 = 2C19 (Homo sapiens, UniProt P33261); test: inhibition of human liver cytochrome P450 2C19; type: in vitro ADME; conditions: human liver cytochrome P450 isoenzyme
[4] = in-vitro plasma protein binding, mice; type: in vitro ADME; conditions: mouse, 0.05 to 50 μg/mL
Description: as §1

[5] = in-vitro plasma protein binding, rats; type: in vitro ADME; conditions: rat, 0.05 to 50 μg/mL
Description: as §1

[6] = species specificity of activity; parameters: species or system chimpanzee and man
[7] = both sexes, human, in vivo, oral, 3 mg once daily, Study Day 14, mean
[8] = both sexes, human, in vivo, oral, 10 mg once daily, Study Day 14, mean
[9] = both sexes, human, in vivo, oral, 20 mg once daily, Study Day 14, simulated data at steady-state

Sequence of 3A4 (P08684 whole entry): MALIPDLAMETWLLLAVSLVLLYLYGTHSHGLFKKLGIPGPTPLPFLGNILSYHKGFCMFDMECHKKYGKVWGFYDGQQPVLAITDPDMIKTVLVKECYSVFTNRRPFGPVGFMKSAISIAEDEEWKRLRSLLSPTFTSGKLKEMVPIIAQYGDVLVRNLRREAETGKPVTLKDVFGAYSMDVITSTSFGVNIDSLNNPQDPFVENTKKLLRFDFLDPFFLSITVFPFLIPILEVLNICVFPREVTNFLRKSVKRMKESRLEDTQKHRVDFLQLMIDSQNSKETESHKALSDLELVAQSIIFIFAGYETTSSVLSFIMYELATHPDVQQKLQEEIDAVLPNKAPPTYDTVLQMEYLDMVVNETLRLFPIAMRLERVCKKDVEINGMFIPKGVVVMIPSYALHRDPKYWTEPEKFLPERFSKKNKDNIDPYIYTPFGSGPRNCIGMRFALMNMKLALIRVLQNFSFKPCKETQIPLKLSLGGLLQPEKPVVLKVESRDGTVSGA
Sequence of 2C19 (P33261 whole entry): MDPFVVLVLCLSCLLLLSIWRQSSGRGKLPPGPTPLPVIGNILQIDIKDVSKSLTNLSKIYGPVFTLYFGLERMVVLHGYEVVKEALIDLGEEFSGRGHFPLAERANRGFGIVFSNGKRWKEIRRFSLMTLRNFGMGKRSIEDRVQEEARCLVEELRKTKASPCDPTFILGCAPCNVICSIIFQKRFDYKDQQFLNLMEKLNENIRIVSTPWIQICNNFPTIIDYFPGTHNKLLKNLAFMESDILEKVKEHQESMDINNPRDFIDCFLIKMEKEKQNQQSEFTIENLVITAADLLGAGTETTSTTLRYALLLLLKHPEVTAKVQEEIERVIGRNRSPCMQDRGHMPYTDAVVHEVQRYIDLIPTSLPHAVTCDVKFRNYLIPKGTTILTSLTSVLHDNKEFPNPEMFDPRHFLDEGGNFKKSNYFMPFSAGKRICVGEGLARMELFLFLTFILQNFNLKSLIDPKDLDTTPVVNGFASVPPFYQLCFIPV

In the case of `O=C(Nc1nc(-c2cc(Cl)cs2)c(N2CCN(C3CCCCC3)CC2)s1)c1cnc(N2CCC(C(=O)O)CC2)c(Cl)c1` [Formula I, 1-(3-chloro-5-{[4-(4-chlorothiophen-2-yl)-5-(4-cyclohexylpiperazin-1-yl)thiazol-2-yl]carbamoyl}pyridin-2-yl)piperadine-4-carboxylic acid], the “tolerability (drug-related clinical or laboratory adverse experiences)” value [1] was “well tolerated”, the fraction unbound [2] was 0.024 to 0.03 and the “metabolism by liver microsomal enzymes” value (liver microsomal enzymes) was “does not appear to be metabolized”. For the same molecule, the AUC(0-t) ([3]; both sexes, human, in vivo, oral, 3 mg, 3 mg once daily, Study Day 1, mean, read-out: AUC0-last) was 235 ng·h/mL, the Tmax ([3]; both sexes, human, in vivo, oral, 3 mg, 3 mg once daily, Study Day 1, median) was 6 h and the AUC(0-t) ([3]; both sexes, human, in vivo, oral, 3 mg, 3 mg once daily, Study Day 14, mean, read-out: AUC0-last) was 659 ng·h/mL. For the same molecule, the Tmax ([3]; both sexes, human, in vivo, oral, 3 mg, 3 mg once daily, Study Day 14, median) was 6 h, the AUC(0-t) ([3]; both sexes, human, in vivo, oral, 10 mg, 10 mg once daily, Study Day 1, mean, read-out: AUC0-last) was 841 ng·h/mL and the Tmax ([3]; both sexes, human, in vivo, oral, 10 mg, 10 mg once daily, Study Day 1, median) was 6 h. For the same molecule, the AUC(0-t) ([3]; both sexes, human, in vivo, oral, 10 mg, 10 mg once daily, Study Day 14, mean, read-out: AUC0-last) was 2360 ng·h/mL, the Tmax ([3]; both sexes, human, in vivo, oral, 10 mg, 10 mg once daily, Study Day 14, median) was 4.5 h and the AUC(0-t) ([3]; both sexes, human, in vivo, oral, 20 mg, 20 mg once daily, Study Day 1, mean, read-out: AUC0-last) was 1960 ng·h/mL. The Tmax ([3]; both sexes, human, in vivo, oral, 20 mg, 20 mg once daily, Study Day 1, median) was 6 h, the Tmax ([3]; both sexes, human, in vivo, oral, 20 mg, 20 mg once daily, Study Day 14, median, simulated data at steady-state) was 6 h and the AUC(0-t) ([3]; both sexes, human, in vivo, oral, 20 mg, 20 mg once daily, Study Day 14, simulated data at steady-state, read-out: AUC0-last) was 3610 ng·h/mL. It also gave an AUC(0-inf) [3, 7] of 804 ng·h/mL, a half-life [3, 7] of 18.2 h and a Cmax ([3]; both sexes, human, in vivo, oral, 3 mg once daily, Study Day 14, mean, read-out: Cmax, ss) of 25.6 ng/mL. It also gave an AUC(0-inf) [3, 8] of 2870 ng·h/mL, a half-life [3, 8] of 18.1 h and a Cmax ([3]; both sexes, human, in vivo, oral, 10 mg once daily, Study Day 14, mean, read-out: Cmax, ss) of 94.1 ng/mL. It also gave an AUC(0-inf) [3, 9] of 7150 ng·h/mL, a half-life [3, 9] of 20.8 h and a Cmax ([3]; both sexes, human, in vivo, oral, 20 mg once daily, Study Day 14, simulated data at steady-state, read-out: Cmax, ss) of 205 ng/mL. For the same molecule, the half-life at 14 days ([3]; both sexes, human, in vivo, oral, multi-dose study, independent of dose) was 18 to 21 h, the Cmax ([3]; both sexes, human, in vivo, 3 mg once daily oral suspension, Study Day 1, mean, read-out: Cmax) was 14.8 ng/mL and the Cmax ([3]; both sexes, human, in vivo, 10 mg once daily oral suspension, Study Day 1, mean, read-out: Cmax) was 53.2 ng/mL. It also gave a Cmax ([3]; both sexes, human, in vivo, 20 mg once daily oral suspension, Study Day 1, mean, read-out: Cmax) of 121 ng/mL, an AUC(0-t) ([3]; both sexes, human, plasma, oral, 3 mg, 3 mg dose administered over about fourteen (14) days, human, read-out: mean AUC0-last) of ~659 ng·h/mL and a Tmax at 14 days ([3]; both sexes, human, plasma, oral, 3 mg, 3 mg dose administered over about fourteen (14) days, human) of ~6 h. It also gave an AUC(0-t) ([3]; both sexes, human, plasma, oral, 10 mg, 10 mg dose administered over about fourteen (14) days, human, read-out: mean AUC0-last) of ~2360 ng·h/mL, a Tmax at 14 days ([3]; both sexes, human, plasma, oral, 10 mg, 10 mg dose administered over about fourteen (14) days, human) of ~4.4 h and an AUC(0-t) ([3]; both sexes, human, plasma, oral, 20 mg, 20 mg dose administered over about fourteen (14) days, human, Table 3: simulated data at steady-state, read-out: mean AUC0-last) of ~3610 ng·h/mL. It also gave a Tmax at 14 days ([3]; both sexes, human, plasma, oral, 20 mg, 20 mg dose administered over about fourteen (14) days, human, Table 3: simulated data at steady-state) of ~5.5 h, a Cmax at 14 days ([3]; both sexes, plasma, oral, 3 mg dose administered over about fourteen (14) days, human) of ~25 ng/mL and a Cmax at 14 days ([3]; both sexes, plasma, oral, 10 mg dose administered over about fourteen (14) days, human) of ~94 ng/mL. The Cmax at 14 days ([3]; both sexes, plasma, oral, 20 mg dose administered over about fourteen (14) days, human, Table 3: simulated data at steady-state) was ~204 ng/mL, the “dose proportionality of Cmax and AUC” value ([3]; following single and repeat administration, 3 mg to 20 mg) was “increased proportionally with respect to dose” and the “inhibition of CYP3A4” value (3A4) was “did not inhibit”. For the same molecule, the “inhibition of CYP2C19” value (2C19) was “did not inhibit”, the fraction unbound [4] was 0.109 to 0.128 and the fraction unbound [5] was 0.108 to 0.124. For the same molecule, the species specificity [6] was “activity only in the chimpanzee and man”.
